Assay results reported in the supplement of paper PMC11061612.

What was measured:
BE2-M17 (Neuroblastoma) = experiment: combination Emax (second highest fraction inhibited in the dose matrix, 72 h); higher = more inhibition; extreme values may be limits of the assay
Method in brief: (§1)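 Bliss excess equals the observed combination effect minus the expected value EA + EB − EA·EB, where EA and EB are the effects of each agent alone. Combination Emax is the second-highest inhibition within the matrix. Inhibition was scaled from CellTiter-Glo 2.0 luminescence, with 0 set by vehicle wells and 1 by blank wells, after 72 hours of two-drug dosing of cells plated in 1536-well plates.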

[1] = system: SNU-16 (Gastric Carcinoma); experiment: as above
Method in brief: as §1

[2] = system: LNZTA3WT4 (Low Grade Glioma); experiment: as above
Method in brief: as §1

EW-11 (Ewing's Sarcoma) = experiment: as above
Method in brief: as §1

[3] = system: LCLC-97TM1 (Non-Small Cell Lung Carcinoma); experiment: as above
Method in brief: as §1

[4] = system: HuCCT1 (Biliary Tract Carcinoma); experiment: as above
Method in brief: as §1

[5] = system: OE21 (Esophageal Squamous Cell Carcinoma); experiment: as above
Method in brief: as §1

[6] = system: NUGC-4 (Gastric Carcinoma); experiment: as above
Method in brief: as §1

[7] = system: FTC-133 (Thyroid Gland Carcinoma); experiment: as above
Method in brief: as §1

[8] = system: SW1573 (Lung Adenocarcinoma); experiment: as above
Method in brief: as §1

[9] = system: L-428 (Hodgkin's Lymphoma); experiment: as above
Method in brief: as §1

NCI-H2052 (Mesothelioma) = experiment: as above
Method in brief: as §1

[10] = system: HeLa (Cervical Carcinoma); experiment: as above
Method in brief: as §1

CAL-72 (Osteosarcoma) = experiment: as above
Method in brief: as §1

[11] = system: LNZTA3WT4 (Low Grade Glioma); experiment: Bliss excess, mean over the matrix (fraction); higher = more synergy
Method in brief: as §1

[12] = system: YAPC (Pancreatic Carcinoma); experiment: as above
Method in brief: as §1

[13] = system: Hs-746T (Gastric Carcinoma); experiment: as above
Method in brief: as §1

[14] = system: FTC-133 (Thyroid Gland Carcinoma); experiment: as above
Method in brief: as §1

[15] = system: Detroit562 (Head and Neck Carcinoma); experiment: as above
Method in brief: as §1

CCN(CCO)CCCOc1ccc2c(Nc3cc(CC(=O)Nc4cccc(F)c4)[nH]n3)ncnc2c1 [AZD2811] + C[C@@H]1COCCN1C2=NC(=NC(=C2)C3(CC3)[S@](=N)(=O)C)C4=C5C=CNC5=NC=C4 [AZD6738] (first compound max 1 µM, 7x7, partner max 10 µM)
combination Emax (BE2-M17 (Neuroblastoma)): 0.741 | combination Emax [1]: 0.974 | combination Emax [2]: 0.754 | combination Emax (EW-11 (Ewing's Sarcoma)): 0.686 | combination Emax [3]: 0.842 | combination Emax [4]: 0.773 | combination Emax [5]: 0.666 | combination Emax [6]: 0.547 | combination Emax [7]: 0.688 | combination Emax [8]: 0.266 | combination Emax [9]: 0.78 | combination Emax (NCI-H2052 (Mesothelioma)): 0.359 | combination Emax [10]: 0.567 | combination Emax (CAL-72 (Osteosarcoma)): 0.843 | Bliss excess [11]: -0.0315 | Bliss excess [12]: -0.0367 | Bliss excess [13]: -0.0706 | Bliss excess [14]: 0.0103 | Bliss excess [15]: -0.0108

COc1cccc(OCCCN)c1-c1cc(Nc2cnc(C#N)cn2)n[nH]1 [Prexasertib] + CN(C)CCCOc1ccc(-c2ccc3ncc4c(c3c2)n(C2CCOCC2)c(=O)n4C)cn1 [AZD0156] (first compound max 1 µM, 7x7, partner max 1 µM)
combination Emax (BE2-M17 (Neuroblastoma)): 0.983 | combination Emax [1]: 1 | combination Emax [2]: 0.885 | combination Emax (EW-11 (Ewing's Sarcoma)): 0.756 | combination Emax [3]: 0.925 | combination Emax [4]: 0.819 | combination Emax [5]: 0.726 | combination Emax [6]: 0.49 | combination Emax [7]: 0.805 | combination Emax [8]: 0.201 | combination Emax [9]: 0.958 | combination Emax (NCI-H2052 (Mesothelioma)): 0.556 | combination Emax [10]: 0.859 | combination Emax (CAL-72 (Osteosarcoma)): 0.847 | Bliss excess [11]: -0.0321 | Bliss excess [12]: -0.0799 | Bliss excess [13]: -0.0078 | Bliss excess [14]: -0.0596 | Bliss excess [15]: -0.014

CN(C)CCCOc1ccc(-c2ccc3ncc4c(c3c2)n(C2CCOCC2)c(=O)n4C)cn1 [AZD0156] + C[C@@H]1COCCN1C2=NC(=NC(=C2)C3(CC3)[S@](=N)(=O)C)C4=C5C=CNC5=NC=C4 [AZD6738] (first compound max 1 µM, 7x7, partner max 10 µM)
combination Emax (BE2-M17 (Neuroblastoma)): 0.928 | combination Emax [1]: 0.982 | combination Emax [2]: 0.778 | combination Emax (EW-11 (Ewing's Sarcoma)): 0.668 | combination Emax [3]: 0.88 | combination Emax [4]: 0.796 | combination Emax [5]: 0.696 | combination Emax [6]: 0.639 | combination Emax [7]: 0.666 | combination Emax [8]: 0.196 | combination Emax [9]: 0.777 | combination Emax (NCI-H2052 (Mesothelioma)): 0.399 | combination Emax [10]: 0.679 | combination Emax (CAL-72 (Osteosarcoma)): 0.889 | Bliss excess [11]: -0.0016 | Bliss excess [12]: -0.0354 | Bliss excess [13]: -0.0211 | Bliss excess [14]: -0.0043 | Bliss excess [15]: 0.0477

COc1cccc(OCCCN)c1-c1cc(Nc2cnc(C#N)cn2)n[nH]1 [Prexasertib] + C[C@@H]1COCCN1C2=NC(=NC(=C2)C3(CC3)[S@](=N)(=O)C)C4=C5C=CNC5=NC=C4 [AZD6738] (first compound max 1 µM, 7x7, partner max 10 µM)
combination Emax (BE2-M17 (Neuroblastoma)): 0.994 | combination Emax [1]: 1 | combination Emax [2]: 0.91 | combination Emax (EW-11 (Ewing's Sarcoma)): 0.734 | combination Emax [3]: 0.941 | combination Emax [4]: 0.835 | combination Emax [5]: 0.745 | combination Emax [6]: 0.543 | combination Emax [7]: 0.861 | combination Emax [8]: 0.236 | combination Emax [9]: 0.95 | combination Emax (NCI-H2052 (Mesothelioma)): 0.537 | combination Emax [10]: 0.864 | combination Emax (CAL-72 (Osteosarcoma)): 0.869 | Bliss excess [11]: -0.0422 | Bliss excess [12]: 0.0689 | Bliss excess [13]: -0.033 | Bliss excess [14]: 0.0016 | Bliss excess [15]: -0.0311

COc1cccc2c1C(=O)c1c(O)c3c(c(O)c1C2=O)C[C@@](O)(C(=O)CO)C[C@@H]3O[C@H]1C[C@H](N)[C@H](O)[C@H](C)O1 [Doxorubicin] + Cc1cc2ncnn2cc1Nc1ncc2c(n1)n(C1CCOCC1)c(=O)n2C [AZD7648] (first compound max 1 µM, 7x7, partner max 10 µM)
combination Emax (BE2-M17 (Neuroblastoma)): 0.862 | combination Emax [1]: 0.97 | combination Emax [2]: 0.647 | combination Emax (EW-11 (Ewing's Sarcoma)): 0.893 | combination Emax [3]: 0.6 | combination Emax [4]: 0.746 | combination Emax [5]: 0.593 | combination Emax [6]: 0.393 | combination Emax [7]: 0.92 | combination Emax [8]: 0.533 | combination Emax [9]: 0.937 | combination Emax (NCI-H2052 (Mesothelioma)): 0.745 | combination Emax [10]: 0.499 | combination Emax (CAL-72 (Osteosarcoma)): 0.663 | Bliss excess [11]: 0.016 | Bliss excess [12]: -0.0304 | Bliss excess [13]: 0.0464 | Bliss excess [14]: 0.0917 | Bliss excess [15]: 0.103

CCN(CCO)CCCOc1ccc2c(Nc3cc(CC(=O)Nc4cccc(F)c4)[nH]n3)ncnc2c1 [AZD2811] + O=C(c1cc(Cc2n[nH]c(=O)c3ccccc23)ccc1F)N1CCN(C(=O)C2CC2)CC1 [Olaparib] (first compound max 1 µM, 7x7, partner max 10 µM)
combination Emax (BE2-M17 (Neuroblastoma)): 0.354 | combination Emax [1]: 0.705 | combination Emax [2]: 0.223 | combination Emax (EW-11 (Ewing's Sarcoma)): 0.564 | combination Emax [3]: 0.319 | combination Emax [4]: 0.25 | combination Emax [5]: 0.255 | combination Emax [6]: 0.21 | combination Emax [7]: 0.223 | combination Emax [8]: 0.221 | combination Emax [9]: 0.348 | combination Emax (NCI-H2052 (Mesothelioma)): 0.184 | combination Emax [10]: 0.293 | combination Emax (CAL-72 (Osteosarcoma)): 0.322 | Bliss excess [11]: -0.0005 | Bliss excess [12]: -0.0124 | Bliss excess [13]: -0.0553 | Bliss excess [14]: -0.0174 | Bliss excess [15]: 0.0133

CCN(CCO)CCCOc1ccc2c(Nc3cc(CC(=O)Nc4cccc(F)c4)[nH]n3)ncnc2c1 [AZD2811] + C=CCn1c(=O)c2cnc(Nc3ccc(N4CCN(C)CC4)cc3)nc2n1-c1cccc(C(C)(C)O)n1 [AZD1775] (first compound max 1 µM, partner max 1 µM)
combination Emax (BE2-M17 (Neuroblastoma)): 0.618 | combination Emax [1]: 0.916 | combination Emax [2]: 0.792 | combination Emax (EW-11 (Ewing's Sarcoma)): 0.469 | combination Emax [3]: 0.842 | combination Emax [4]: 0.739 | combination Emax [5]: 0.468 | combination Emax [6]: 0.227 | combination Emax [7]: 0.685 | combination Emax [8]: 0.283 | combination Emax [9]: 0.824 | combination Emax (NCI-H2052 (Mesothelioma)): 0.38 | combination Emax [10]: 0.449 | combination Emax (CAL-72 (Osteosarcoma)): 0.728 | Bliss excess [11]: -0.0501 | Bliss excess [12]: -0.0392 | Bliss excess [13]: 0.0312 | Bliss excess [14]: 0.0641 | Bliss excess [15]: 0.05
